From patent US20230009626A1 (ICHNOS SCIENCES S.A., priority 2018, published 2023)
Where a name gives a salt, the structure may show the parent alone.

Target: HPK1 (MAP4K1) (Homo sapiens, UniProt Q92918)
Test: FRET Assay for HPK1 (MAP4K1): one step binding assay, displacement of labeled tracer
Conditions: for inhibition at 1 µM: 1 μM compound; for inhibition at 1 µM / inhibition at 10 µM: FRET ratio 665/620, percent of control; for IC50: dose response curve, nonlinear regression; for inhibition at 10 µM: 10 μM compound
From the text: FRET Assay for HPK1 (MAP4K1):
This is a one step binding assay based on the binding and displacement of the labeled tracer, where compound addition is followed by addition of the anti-GST tagged europium (Eu) as the donor and Alexa Fluor-labeled tracer as the acceptor. Simultaneous binding of both the tracer and GST-antibody to the kinase domain of HPK1 results in a high degree of FRET (fluorescence resonance energy transfer) from the anti-GST tagged europium (Eu) fluorophore to the Alexa Fluor® 647 fluorophore on the kinase tracer and this signal is reduced in presence of the inhibitor that can be measured.
Test compounds or reference compounds such as Sunitinib (Sigma) were dissolved in dimethylsulfoxide (DMSO) to prepare 10.0 mM stock solutions and diluted to the desired concentration. The final concentration of DMSO in the reaction was 3% (v/v). The assay mixture was prepared by mixing 4 nM of the Eu-Anti-GST Antibody and 10 nM MAP4K-1 enzyme in the Kinase buffer containing 50mM HEPES (pH 7.5), 10 mM MgCl2, 1 mM EGTA, 0.01% Brij-35 with or without the desired concentration of the compound. The reaction was incubated on ice for 15 mins. The pre-incubation step was followed by addition of the 20 nM Kinase Tracer 222 into the reaction mixture. After shaking for 5 min the reaction was further incubated for 1 hour at room temperature and this was kept at 4° C. and read on ARTEMIS reader as per the kit instructions (Thermo). […] The activity was calculated as percent of control reaction. IC50 values were calculated from dose response curve by nonlinear regression analysis using GraphPad Prism software.
Percentage inhibition at concentrations of 1.0 μM and 10.0 μM are given in the table along with IC50 (nM) details for selected examples.

Chain of HPK1 (MAP4K1) (Q92918 whole entry): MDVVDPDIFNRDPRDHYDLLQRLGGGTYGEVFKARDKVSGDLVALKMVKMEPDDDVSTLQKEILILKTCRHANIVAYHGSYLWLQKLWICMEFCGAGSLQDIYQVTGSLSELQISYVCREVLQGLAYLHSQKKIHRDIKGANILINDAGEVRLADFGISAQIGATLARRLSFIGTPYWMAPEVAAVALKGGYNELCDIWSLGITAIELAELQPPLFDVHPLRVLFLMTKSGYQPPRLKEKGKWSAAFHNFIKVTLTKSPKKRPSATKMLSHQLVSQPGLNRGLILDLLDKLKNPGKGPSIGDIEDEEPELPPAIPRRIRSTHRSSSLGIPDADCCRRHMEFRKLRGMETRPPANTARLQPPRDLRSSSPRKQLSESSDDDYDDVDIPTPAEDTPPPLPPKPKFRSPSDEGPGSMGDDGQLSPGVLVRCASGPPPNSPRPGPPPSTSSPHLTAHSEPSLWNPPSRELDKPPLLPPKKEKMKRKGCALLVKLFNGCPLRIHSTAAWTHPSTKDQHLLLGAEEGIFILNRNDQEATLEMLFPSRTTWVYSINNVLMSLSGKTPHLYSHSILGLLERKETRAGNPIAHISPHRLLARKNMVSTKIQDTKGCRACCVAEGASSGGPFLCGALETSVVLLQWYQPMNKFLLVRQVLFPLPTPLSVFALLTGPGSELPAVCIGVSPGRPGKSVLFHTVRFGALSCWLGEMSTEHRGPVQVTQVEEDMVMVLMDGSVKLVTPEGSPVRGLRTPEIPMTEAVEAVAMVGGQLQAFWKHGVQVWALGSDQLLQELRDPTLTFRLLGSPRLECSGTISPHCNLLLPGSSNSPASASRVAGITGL

Row | SMILES | inhibition at 1 µM [%] | IC50 [nM] | inhibition at 10 µM [%]
1 | CN/C(=C1\C(=O)Nc2ccc(-c3c(F)cccc3OC)cc21)c1ccccc1 [Example 1, 5-(2-fluoro-6-methoxyphenyl)-3-((methylamino)(phenyl)methylene)indolin-2-one] | 69.8 | 100 to 500 | 84
2 | COc1cccc(F)c1-c1ccc2c(c1)/C(=C(\C)Nc1ccc(N3CCN(C)CC3)cc1)C(=O)N2 [Example 2, (Z)-5-(2-Fluoro-6-methoxyphenyl)-3-(1-((4-(4-methylpiperazin-1-yl)phenyl)amino)ethylidene)indolin-2-one] | 88.6 | < 50 | 82.5
3 | COc1cccc(F)c1-c1ccc2c(c1)/C(=C(\C)Nc1ccccc1)C(=O)N2 [Example 3, (Z)-5-(2-Fluoro-6-methoxyphenyl)-3-(1-(phenylamino)ethylidene)indolin-2-one] | 62.5 | 100 to 500 | –
4 | COc1cccc(F)c1-c1ccc2c(c1)/C(=C(\C)Nc1ccc(N3CCN(C4COC4)CC3)nc1)C(=O)N2 [Example 4, (Z)-5-(2-Fluoro-6-methoxyphenyl)-3-(1-((6-(4-(oxetan-3-yl)piperazin-1-yl)pyridin-3-yl)amino)ethylidene)indolin-2-one] | 90.1 | < 50 | 91
5 | C/C(Nc1ccc(N2CCN(C3COC3)CC2)nc1)=C1/C(=O)Nc2ccc(F)cc21 [Example 5, (Z)-5-Fluoro-3-(1-((6-(4-(oxetan-3-yl)piperazin-1-yl)pyridin-3-yl)amino)ethylidene)indolin-2-one] | 76.1 | 100 to 500 | 85.5
6 | C/C(Nc1ccc(N2CCN(C)CC2)cc1)=C1/C(=O)Nc2ccc(F)cc21 [Example 6, (Z)-5-Fluoro-3-(1-((4-(4-methylpiperazin-1-yl)phenyl)amino)ethylidene)indolin-2-one] | 85.5 | < 50 | 87.3
7 | COc1cccc(F)c1-c1ccc2c(c1)/C(=C(\C)Nc1ccc(N(C)C(=O)CN3CCN(C)CC3)cc1)C(=O)N2 [Example 7, (Z)-N-(4-((1-(5-(2-Fluoro-6-methoxyphenyl)-2-oxoindolin-3-ylidene)ethyl)amino)phenyl)-N-methyl-2-(4-methylpiperazin-1-yl)acetamide] | 82.4 | < 50 | 87.1
8 | COc1cccc(F)c1-c1ccc2c(c1)/C(=C(\C)Nc1ccc(N3CCNCC3)cc1)C(=O)N2 [Example 8, (Z)-5-(2-Fluoro-6-methoxyphenyl)-3-(1-((4-(piperazin-1-yl)phenyl)amino)ethylidene)indolin-2-one] | 84.8 | < 50 | 83.8
9 | CC/C(Nc1ccc(N2CCN(C)CC2)cc1)=C1/C(=O)Nc2ccc(-c3c(F)cccc3OC)cc21 [Example 9, (Z)-5-(2-Fluoro-6-methoxyphenyl)-3-(1-((4-(4-methylpiperazin-1-yl)phenyl)amino)propylidene)indolin-2-one] | 84.9 | < 50 | 84.4
10 | COc1cccc(F)c1-c1ccc2c(c1)/C(=C(\C)Nc1cnn(C)c1)C(=O)N2 [Example 10, (Z)-5-(2-Fluoro-6-methoxyphenyl)-3-(1-((1-methyl-1H-pyrazol-4-yl)amino)ethylidene)indolin-2-one] | 82.6 | < 50 | 88.2
11 | COc1cccc(F)c1-c1ccc2c(c1)/C(=C(\C)Nc1ccc(N3CCN(C)CC3)cc1C)C(=O)N2 [Example 11, (Z)-5-(2-Fluoro-6-methoxyphenyl)-3-(1-((2-methyl-4-(4-methylpiperazin-1-yl)phenyl)amino)ethylidene)indolin-2-one] | 73.2 | 100 to 500 | 84.4
12 | COc1cc2c(cc1N/C(C)=C1\C(=O)Nc3ccc(-c4c(F)cccc4OC)cc31)CNCC2 [Example 12, (Z)-5-(2-Fluoro-6-methoxyphenyl)-3-(1-((6-methoxy-1,2,3,4-tetrahydroisoquinolin-7-yl)amino)ethylidene)indolin-2-one. PTSA salt] | 48 | > 500 | 55.8

Results, then the compound that gave them:

Row | inhibition at 1 µM [%] | IC50 [nM] | inhibition at 10 µM [%] | SMILES
13 | 75.9 | < 50 | – | C/C(Nc1ccn(C(C)C#N)n1)=C1/C(=O)Nc2cnc(-c3cnccc3C)cc21 (stereo in doubt) [Example 116]
14 | 73.3 | 50 to 100 | – | COc1cccc(F)c1-c1ccc2c(c1)/C(=C(\C)Nc1ccc(N3CCOCC3)cc1)C(=O)N2 [Example 13, (Z)-5-(2-Fluoro-6-methoxyphenyl)-3-(1-((4-morpholinophenyl)amino)ethylidene)indolin-2-one]
15 | 86.3 | < 50 | 88.3 | COc1cccc(F)c1-c1cc2c(cn1)NC(=O)/C2=C(/C)Nc1ccc(N2CCN(C)CC2)cc1 [Example 14, (Z)-5-(2-fluoro-6-methoxyphenyl)-3-(1-((4-(4-methylpiperazin-1-yl)phenyl)amino)ethylidene)-1H-pyrrolo[2,3-c]pyridin-2(3H)-one]
16 | 85.2 | < 50 | 87 | COc1cccc(F)c1-c1ccc2c(c1)/C(=C(/Nc1cnn(C)c1)c1ccccc1)C(=O)N2 [Example 15, (Z)-5-(2-Fluoro-6-methoxyphenyl)-3-(((1-methyl-1H-pyrazol-4-yl)amino)(phenyl)methylene)indolin-2-one]
17 | 85.3 | < 50 | 88.9 | COc1cccc(F)c1-c1cc2c(cn1)NC(=O)/C2=C(/C)Nc1cnn(C)c1 [Example 16, (Z)-5-(2-Fluoro-6-methoxyphenyl)-3-(1-((1-methyl-1H-pyrazol-4-yl)amino)ethylidene)-1H-pyrrolo[2,3-c]pyridin-2(3H)-one]
18 | 85.7 | < 50 | 83.3 | CC/C(Nc1cnn(C)c1)=C1/C(=O)Nc2ccc(-c3c(F)cccc3OC)cc21 [Example 17, (Z)-5-(2-Fluoro-6-methoxyphenyl)-3-(1-((1-methyl-1H-pyrazol-4-yl)amino)propylidene)indolin-2-one]
19 | 89.8 | < 50 | 85.4 | COc1cccc(F)c1-c1ccc2c(c1)/C(=C(\C)Nc1ccn(C)n1)C(=O)N2 [Example 18, (Z)-5-(2-Fluoro-6-methoxyphenyl)-3-(1-((1-methyl-1H-pyrazol-3-yl)amino)ethylidene)indolin-2-one]
20 | 85.2 | < 50 | 80.1 | COc1cccc(F)c1-c1cc2c(cc1Cl)NC(=O)/C2=C(/C)Nc1cnn(C)c1 [Example 20]
21 | 83.1 | < 50 | 80 | COc1cccc(F)c1-c1cc2c(cc1C)NC(=O)/C2=C(/C)Nc1cnn(C)c1 [Example 21, (Z)-5-(2-Fluoro-6-methoxyphenyl)-6-methyl-3-(1-((1-methyl-1H-pyrazol-4-yl)amino)ethylidene)indolin-2-one]
22 | 86.6 | < 50 | 90.5 | CCOc1cccc(F)c1-c1cc2c(cn1)NC(=O)/C2=C(/C)Nc1cnn(CC)c1 [Example 22, (Z)-5-(2-Ethoxy-6-fluorophenyl)-3-(1-((1-ethyl-1H-pyrazol-4-yl)amino)ethylidene)-1H-pyrrolo[2,3-c]pyridin-2(3H)-one]
